In paper PMC5387716, “Discovery of monocarbonyl curcumin-BTP hybrids as STAT3 inhibitors for drug-sensitive and drug-resistant breast cancer therapy” (Scientific Reports, 2017) one finds IC50 and melting point data, which are given here for 11 compounds.

Like-named read-outs stand apart in the source and are kept apart here.

Data set [1] deals with MCF-7/DOX cells. As to the kind of experiment: MTT anti-proliferative assay, MCF-7/DOX. It is filed as cell-based, human. The following applies: MTT, 48 h, read-out: MCF-7/DOX IC50 ± SD. The protocol:
(§1) All cell lines were purchased from Cell Bank of Shanghai Institute of Biochemistry and Cell Biology, Chinese Academy of Sciences (Shanghai, China). Human breast carcinoma cells (MCF-7 and MCF-7/DOX), breast epithelial cells (MCF-10A) and normal human liver cells (LO2) were maintained in RPMI-1640 medium. All cells were supplemented with 12% fetal bovine serum containing 50 μg/ml penicillin and 50 μg/ml streptomycin. Cells were grown to 80% confluency in a tissue culture flask at 37 °C in a humidified atmosphere containing 5% CO2, and then were trypsinized with 1 × Trypsin-Versene and split. The MCF-7/DOX cell line we used was established from its parental cell line MCF-7 cell by gradually increasing the concentration of DOX to which the cells were exposed in a stepwise manner over a period of 8 months. […] The cells were incubated in drug-free medium for at least 1 week before use.
(§2) Cells (MCF-7, MCF-7/DOX, MCF-10A, LO2) were seeded in 96-well plates at a density of 3,000–6,000 cells per well. The cells were incubated overnight (16 h) in a humidified 5% CO2 incubator at 37 °C. After media removal, different concentrations of test compounds were added in triplicate to the plates in 200 μL of fresh media and were incubated with the cells at 37 °C for 48 h. […] Cell viability was evaluated using 3-(4, 5-dimethylthiazolyl)-2,5-diphenyltetrazoliumbromide (MTT). The absorbance was read by an ELISA reader (SpectraMax Plus384, Molecular Devices, Sunnyvale, CA) at a test wavelength of 570 nm and a reference wavelength of 630 nm. Cell viability was calculated using the following formula: […]

Data set [2] relates to MCF-7 cells. As to the kind of experiment: MTT anti-proliferative assay, MCF-7. The note with it: read-out: MCF-7 IC50 ± SD. The format is cell-based, human. The protocol: as §1, §2

`COc1ccc(/C=C/C(=O)N2CCN(C(=O)C3=Cc4ccc(Br)cc4S3(=O)=O)CC2)cc1OC` [Compound 6l, (E)-1-(4-(6-bromo-1,1-dioxidobenzo[b]thiophene-2-carbonyl)piperazin-1-yl)-3-(3,4-dimethoxyphenyl)prop-2-en-1-one]: the melting point is 222 to 224 °C. The IC50 in data set [1] (Homo sapiens, MCF7-DOX) is 1.77 ± 0.12 µM. In addition, in data set [2] (Homo sapiens, MCF7, 48 h), the IC50 worked out at 1.25 ± 0.14 µM.

For the compound `O=C(/C=C/c1ccccn1)N1CCN(C(=O)C2=Cc3ccc(Br)cc3S2(=O)=O)CC1` [Compound 6q, (E)-1-(4-(6-bromo-1,1-dioxidobenzo[b]thiophene-2-carbonyl)piperazin-1-yl)-3-(pyridin-2-yl)prop-2-en-1-one], the melting point lay in the range of 97 to 99 °C. Moreover, the IC50 in data set [1] (Homo sapiens, MCF7-DOX) was found to be 4.42 ± 0.17 µM. Besides, the IC50 in data set [2] (Homo sapiens, MCF7, 48 h) amounted to 1.48 ± 0.19 µM.

In the case of `COc1ccc(/C=C/C(=O)N2CCN(C(=O)C3=Cc4cc(Br)ccc4S3(=O)=O)CC2)cc1OC` [Compound 6a, (E)-1-(4-(5-bromo-1,1-dioxidobenzo[b]thiophene-2-carbonyl)piperazin-1-yl)-3-(3,4-dimethoxyphenyl)prop-2-en-1-one], the melting point is 244 to 246 °C. Moreover, the IC50 in data set [1] (Homo sapiens, MCF7-DOX) was found to be 1.82 ± 0.19 µM. In data set [2] (Homo sapiens, MCF7, 48 h), the IC50 came to 0.71 ± 0.14 µM.

For the compound “(E)-1-(4-(5-bromo-1,1-dioxidobenzo[b]thiophene-2-carbonyl)piperazin-1-yl)-3-(4-fluorophenyl)prop-2-en-1-one [Compound 6v]”, the IC50 in data set [1] was found to be 2.14 ± 0.27 µM; in data set [2] (48 h), 1.45 ± 0.17 µM.

For the compound `O=C(/C=C/c1ccc([N+](=O)[O-])cc1)N1CCN(C(=O)C2=Cc3cc(Br)ccc3S2(=O)=O)CC1` [Compound 6e, (E)-1-(4-(5-bromo-1,1-dioxidobenzo[b]thiophene-2-carbonyl)piperazin-1-yl)-3-(4-nitrophenyl)prop-2-en-1-one], the melting point was greater than 250 °C. Further, the IC50 in data set [1] (Homo sapiens, MCF7-DOX) turned out to be 1.08 ± 0.14 µM. Moreover, the IC50 in data set [2] (Homo sapiens, MCF7, 48 h) came to 1.18 ± 0.08 µM.

“(E)-1-(4-(5-bromo-1,1-dioxidobenzo[b]thiophene-2-carbonyl)piperazin-1-yl)-3-(4-hydroxy-3-methoxyphenyl)prop-2-en-1-one [Compound 6j]”: the IC50 in data set [1] was determined as 1 ± 0.76 µM; in data set [2] (48 h), 0.86 ± 0.09 µM.

`O=C(/C=C/c1ccc(Cl)cc1)N1CCN(C(=O)C2=Cc3cc(Br)ccc3S2(=O)=O)CC1` [Compound 6h, (E)-1-(4-(5-bromo-1,1-dioxidobenzo[b]thiophene-2-carbonyl)piperazin-1-yl)-3-(4-chlorophenyl)prop-2-en-1-one] showed a melting point of 225 to 227 °C. Besides, the IC50 in data set [1] (Homo sapiens, MCF7-DOX) worked out at 0.72 ± 0.13 µM. Further, the IC50 in data set [2] (Homo sapiens, MCF7, 48 h) came to 2.02 ± 0.2 µM.

In turn, `COc1cc(/C=C/C(=O)N2CCN(C(=O)C3=Cc4cc(Br)ccc4S3(=O)=O)CC2)cc(OC)c1O` [Compound 6d, (E)-1-(4-(5-bromo-1,1-dioxidobenzo[b]thiophene-2-carbonyl)piperazin-1-yl)-3-(4-hydroxy-3,5-dimethoxyphenyl)prop-2-en-1-one] yielded a melting point of 125 to 127 °C. Further, in data set [1] (Homo sapiens, MCF7-DOX), the IC50 is 2.27 ± 0.6 µM. The IC50 in data set [2] (Homo sapiens, MCF7, 48 h) stood at 2.25 ± 0.35 µM.

On to `O=C(/C=C/c1ccc(Br)cc1)N1CCN(C(=O)C2=Cc3ccc(Br)cc3S2(=O)=O)CC1` [Compound 6r, (E)-1-(4-(6-bromo-1,1-dioxidobenzo[b]thiophene-2-carbonyl)piperazin-1-yl)-3-(4-bromophenyl)prop-2-en-1-one], for which the melting point was in the range of 215 to 217 °C. Moreover, the IC50 in data set [1] (Homo sapiens, MCF7-DOX) turned out to be 2.61 ± 0.82 µM. Further, in data set [2] (Homo sapiens, MCF7, 48 h), the IC50 turned out to be 1.6 ± 0.13 µM.

As for “(E)-1-(4-(6-bromo-1,1-dioxidobenzo[b]thiophene-2-carbonyl)piperazin-1-yl)-3-(3-hydroxy-4-methoxyphenyl)prop-2-en-1-one [Compound 6t]”, the figures for the IC50 in data set [1] and in data set [2] (48 h) were 2.02 ± 0.34 µM and 3.03 ± 0.22 µM, respectively.

Take “(E)-1-(4-(6-bromo-1,1-dioxidobenzo[b]thiophene-2-carbonyl)piperazin-1-yl)-3-(4-hydroxy-3-methoxyphenyl)prop-2-en-1-one [Compound 6u]”: the IC50 in data set [1] was determined as 0.55 ± 0.01 µM; in data set [2] (48 h) it was 1.44 ± 0.11 µM.
